ChEMBL document CHEMBL5678818, “Discovery of potent SOS1 inhibitors that block RAS activation via disruption of the RAS-SOS1 interaction” (Proc Natl Acad Sci U S A, 2019)

Tests used:
[1] = biological target: Calcium/calmodulin-dependent protein kinase type 1B (Homo sapiens) (UniProt Q6P2M8); assay: Inhibition of CAMK1B (unknown origin) assessed as residual activity at 1000 nM by KINOMEscan analysis relative to control
[2] = biological target: Proto-oncogene tyrosine-protein kinase ROS (Homo sapiens) (UniProt P08922); assay: Inhibition of ROS1 (unknown origin) assessed as residual activity at 100 nM by KINOMEscan analysis relative to control
[3] = biological target: Macrophage colony-stimulating factor 1 receptor (Homo sapiens) (UniProt P07333); assay: Inhibition of autoinhibited CSF1R (unknown origin) assessed as residual activity at 100 nM by KINOMEscan analysis relative to control
[4] = biological target: T1, Mitogen-activated protein kinase kinase kinase 13 (Homo sapiens) (UniProt O43283); assay: Inhibition of LZK (unknown origin) assessed as residual activity at 100 nM by KINOMEscan analysis relative to control
T1 sequence (whole entry): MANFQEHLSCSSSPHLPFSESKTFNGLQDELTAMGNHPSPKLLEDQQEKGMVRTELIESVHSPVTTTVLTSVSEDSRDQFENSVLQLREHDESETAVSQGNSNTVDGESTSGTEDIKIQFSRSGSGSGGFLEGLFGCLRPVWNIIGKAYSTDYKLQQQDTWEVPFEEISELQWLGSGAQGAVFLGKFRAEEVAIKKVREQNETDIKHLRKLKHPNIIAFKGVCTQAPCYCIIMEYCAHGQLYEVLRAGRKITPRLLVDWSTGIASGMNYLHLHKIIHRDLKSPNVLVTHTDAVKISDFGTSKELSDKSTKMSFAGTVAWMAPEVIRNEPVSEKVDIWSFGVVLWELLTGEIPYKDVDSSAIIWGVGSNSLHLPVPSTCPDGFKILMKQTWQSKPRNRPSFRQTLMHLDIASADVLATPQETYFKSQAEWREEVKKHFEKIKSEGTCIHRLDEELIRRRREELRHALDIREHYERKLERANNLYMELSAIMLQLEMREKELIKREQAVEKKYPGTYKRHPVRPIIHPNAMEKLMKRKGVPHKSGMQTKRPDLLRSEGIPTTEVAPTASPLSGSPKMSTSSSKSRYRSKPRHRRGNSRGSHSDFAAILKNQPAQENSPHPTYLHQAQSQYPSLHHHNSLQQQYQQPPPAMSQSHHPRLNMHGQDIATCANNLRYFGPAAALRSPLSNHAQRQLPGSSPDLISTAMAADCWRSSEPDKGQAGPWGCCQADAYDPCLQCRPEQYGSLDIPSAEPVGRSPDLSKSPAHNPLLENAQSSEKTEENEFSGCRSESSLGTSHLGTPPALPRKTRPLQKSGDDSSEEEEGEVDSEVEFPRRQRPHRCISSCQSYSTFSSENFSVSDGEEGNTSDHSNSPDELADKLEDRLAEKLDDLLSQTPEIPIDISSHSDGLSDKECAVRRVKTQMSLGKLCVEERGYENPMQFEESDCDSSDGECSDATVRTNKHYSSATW

[5] = test system: Proto-oncogene tyrosine-protein kinase receptor Ret (Homo sapiens), P07949 [V804L]; assay: Inhibition of RET V804L mutant (unknown origin) assessed as residual activity at 100 nM by KINOMEscan analysis relative to control
[6] = biological target: T2, Mitogen-activated protein kinase 15 (Homo sapiens) (UniProt Q8TD08); assay: Inhibition of ERK8 (unknown origin) assessed as residual activity at 100 nM by KINOMEscan analysis relative to control
T2 sequence (whole entry): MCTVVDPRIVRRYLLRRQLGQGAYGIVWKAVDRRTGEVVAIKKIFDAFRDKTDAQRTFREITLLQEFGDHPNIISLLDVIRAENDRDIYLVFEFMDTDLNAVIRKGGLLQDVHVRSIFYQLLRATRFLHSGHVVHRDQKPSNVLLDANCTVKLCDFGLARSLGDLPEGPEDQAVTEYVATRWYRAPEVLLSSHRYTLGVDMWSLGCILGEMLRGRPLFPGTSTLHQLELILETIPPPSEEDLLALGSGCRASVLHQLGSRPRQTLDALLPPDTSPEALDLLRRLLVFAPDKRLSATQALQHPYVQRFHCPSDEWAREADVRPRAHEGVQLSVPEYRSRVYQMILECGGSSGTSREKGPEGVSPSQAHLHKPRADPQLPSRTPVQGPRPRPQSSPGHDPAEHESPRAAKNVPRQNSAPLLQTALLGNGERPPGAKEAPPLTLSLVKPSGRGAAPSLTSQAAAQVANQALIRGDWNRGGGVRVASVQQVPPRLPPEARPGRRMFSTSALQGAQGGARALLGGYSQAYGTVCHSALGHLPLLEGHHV

[7] = biological target: Protein kinase C eta type (Homo sapiens) (UniProt P24723); assay: Inhibition of PRKCH (unknown origin) assessed as residual activity at 100 nM by KINOMEscan analysis relative to control
Homo sapiens = species on record: Homo sapiens; assay: Inhibition of N-terminal GST-tagged recombinant human SOS1 H905M mutant (564 to 1049 residues) expressed in Escherichia coli assessed as reduction in KRAS G12C mutant activation at 10 uM by HTRF analysis relative to control
[8] = biological target: Mitogen-activated protein kinase 14 (Homo sapiens) (UniProt Q16539); assay: Inhibition of p38-alpha (unknown origin) assessed as residual activity at 100 nM by KINOMEscan analysis relative to control
[9] = biological target: T3, Serine/threonine-protein kinase PknB (Mycobacterium tuberculosis) (UniProt P9WI81); assay: Inhibition of Mycobacterium tuberculosis PKNB assessed as residual activity at 100 nM by KINOMEscan analysis relative to control
T3 sequence (whole entry): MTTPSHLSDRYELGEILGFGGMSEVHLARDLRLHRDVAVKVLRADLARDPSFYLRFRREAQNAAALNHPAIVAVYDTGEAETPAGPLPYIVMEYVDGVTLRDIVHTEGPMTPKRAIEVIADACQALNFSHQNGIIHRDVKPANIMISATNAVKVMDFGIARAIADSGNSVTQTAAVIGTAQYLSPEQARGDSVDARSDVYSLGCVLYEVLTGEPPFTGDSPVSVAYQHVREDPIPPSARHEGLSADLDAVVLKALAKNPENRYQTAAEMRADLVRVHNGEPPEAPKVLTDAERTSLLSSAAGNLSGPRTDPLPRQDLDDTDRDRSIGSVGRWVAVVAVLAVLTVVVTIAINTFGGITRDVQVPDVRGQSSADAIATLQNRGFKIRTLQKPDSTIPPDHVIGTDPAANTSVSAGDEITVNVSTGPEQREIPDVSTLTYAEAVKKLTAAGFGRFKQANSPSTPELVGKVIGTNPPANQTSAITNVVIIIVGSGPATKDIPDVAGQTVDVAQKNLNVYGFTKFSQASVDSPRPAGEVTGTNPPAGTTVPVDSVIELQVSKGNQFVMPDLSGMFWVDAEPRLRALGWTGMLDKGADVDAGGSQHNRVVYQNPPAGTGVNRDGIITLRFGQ

Sequence of Proto-oncogene tyrosine-protein kinase receptor Ret (Homo sapiens), P07949 [V804L] (P07949 whole entry V804L): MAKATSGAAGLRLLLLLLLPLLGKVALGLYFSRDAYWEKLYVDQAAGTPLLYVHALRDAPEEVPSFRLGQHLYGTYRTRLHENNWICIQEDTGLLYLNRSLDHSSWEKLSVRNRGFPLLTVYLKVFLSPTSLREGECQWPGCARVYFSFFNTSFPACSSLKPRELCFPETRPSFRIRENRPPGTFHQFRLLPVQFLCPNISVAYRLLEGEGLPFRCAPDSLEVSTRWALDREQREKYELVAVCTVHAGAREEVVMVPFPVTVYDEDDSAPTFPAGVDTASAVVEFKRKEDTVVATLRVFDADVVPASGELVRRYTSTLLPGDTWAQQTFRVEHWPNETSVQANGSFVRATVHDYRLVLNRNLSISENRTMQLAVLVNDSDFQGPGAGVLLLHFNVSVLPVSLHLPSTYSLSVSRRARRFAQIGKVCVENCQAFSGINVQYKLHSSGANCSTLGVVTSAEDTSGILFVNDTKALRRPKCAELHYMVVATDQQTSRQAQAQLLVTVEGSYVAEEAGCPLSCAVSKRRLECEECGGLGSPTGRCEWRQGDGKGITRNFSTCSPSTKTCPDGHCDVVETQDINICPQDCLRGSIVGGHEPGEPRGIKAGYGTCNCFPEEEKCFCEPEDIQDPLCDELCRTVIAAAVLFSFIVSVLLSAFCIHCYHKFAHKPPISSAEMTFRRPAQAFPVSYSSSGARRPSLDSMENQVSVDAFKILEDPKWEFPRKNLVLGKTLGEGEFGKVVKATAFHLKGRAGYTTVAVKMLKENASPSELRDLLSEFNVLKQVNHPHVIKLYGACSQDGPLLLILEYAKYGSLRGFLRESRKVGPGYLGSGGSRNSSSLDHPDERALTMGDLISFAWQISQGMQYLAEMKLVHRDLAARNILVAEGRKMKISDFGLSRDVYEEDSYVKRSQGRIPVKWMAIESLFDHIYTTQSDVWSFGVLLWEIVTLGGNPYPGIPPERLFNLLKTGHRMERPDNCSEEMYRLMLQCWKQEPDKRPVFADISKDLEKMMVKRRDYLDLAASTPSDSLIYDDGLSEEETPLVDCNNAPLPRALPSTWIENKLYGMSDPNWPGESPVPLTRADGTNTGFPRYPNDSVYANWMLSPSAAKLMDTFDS
Sequence of Macrophage colony-stimulating factor 1 receptor (Homo sapiens) (P07333 whole entry): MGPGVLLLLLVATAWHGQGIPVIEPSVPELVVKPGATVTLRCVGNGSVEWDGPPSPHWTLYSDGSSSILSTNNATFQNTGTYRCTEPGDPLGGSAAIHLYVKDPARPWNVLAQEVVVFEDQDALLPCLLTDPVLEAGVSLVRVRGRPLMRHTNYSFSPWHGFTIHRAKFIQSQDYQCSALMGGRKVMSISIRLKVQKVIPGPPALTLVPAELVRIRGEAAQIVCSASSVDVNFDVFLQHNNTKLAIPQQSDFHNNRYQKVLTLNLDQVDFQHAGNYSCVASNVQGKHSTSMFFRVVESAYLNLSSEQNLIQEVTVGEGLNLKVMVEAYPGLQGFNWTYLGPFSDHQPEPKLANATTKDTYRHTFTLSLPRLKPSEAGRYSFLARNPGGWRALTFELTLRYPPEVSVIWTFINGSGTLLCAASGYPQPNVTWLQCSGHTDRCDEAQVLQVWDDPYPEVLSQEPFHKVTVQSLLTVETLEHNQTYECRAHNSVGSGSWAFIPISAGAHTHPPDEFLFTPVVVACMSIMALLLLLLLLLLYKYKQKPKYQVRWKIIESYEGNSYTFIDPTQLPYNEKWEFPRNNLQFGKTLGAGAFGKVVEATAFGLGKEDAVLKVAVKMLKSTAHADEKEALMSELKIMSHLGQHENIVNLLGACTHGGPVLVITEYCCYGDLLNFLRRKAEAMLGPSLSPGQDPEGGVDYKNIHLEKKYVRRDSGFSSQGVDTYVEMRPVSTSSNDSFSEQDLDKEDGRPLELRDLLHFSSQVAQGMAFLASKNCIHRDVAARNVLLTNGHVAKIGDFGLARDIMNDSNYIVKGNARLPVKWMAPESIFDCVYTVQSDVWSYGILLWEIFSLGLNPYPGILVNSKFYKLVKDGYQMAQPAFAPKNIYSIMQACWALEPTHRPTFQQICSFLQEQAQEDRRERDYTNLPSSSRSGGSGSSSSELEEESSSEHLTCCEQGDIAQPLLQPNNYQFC
Sequence of Protein kinase C eta type (Homo sapiens) (P24723 whole entry, the tested form may be a part): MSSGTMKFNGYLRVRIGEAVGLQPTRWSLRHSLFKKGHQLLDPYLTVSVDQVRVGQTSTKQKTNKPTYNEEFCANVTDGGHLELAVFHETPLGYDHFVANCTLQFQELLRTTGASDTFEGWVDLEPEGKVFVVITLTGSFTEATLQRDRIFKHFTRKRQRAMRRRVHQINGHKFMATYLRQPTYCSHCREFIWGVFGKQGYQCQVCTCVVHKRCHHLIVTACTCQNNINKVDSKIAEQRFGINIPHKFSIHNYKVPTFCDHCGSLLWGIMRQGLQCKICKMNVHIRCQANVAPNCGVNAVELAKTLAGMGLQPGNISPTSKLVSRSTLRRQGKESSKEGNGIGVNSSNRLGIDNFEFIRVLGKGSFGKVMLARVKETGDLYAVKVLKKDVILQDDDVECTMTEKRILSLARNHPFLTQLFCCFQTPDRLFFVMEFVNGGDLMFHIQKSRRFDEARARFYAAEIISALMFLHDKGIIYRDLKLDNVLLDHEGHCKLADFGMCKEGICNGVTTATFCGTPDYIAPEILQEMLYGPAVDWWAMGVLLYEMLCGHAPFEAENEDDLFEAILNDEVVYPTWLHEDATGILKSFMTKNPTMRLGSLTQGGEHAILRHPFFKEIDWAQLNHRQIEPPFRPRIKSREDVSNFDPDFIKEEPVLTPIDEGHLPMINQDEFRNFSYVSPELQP
Sequence of Mitogen-activated protein kinase 14 (Homo sapiens) (Q16539 whole entry): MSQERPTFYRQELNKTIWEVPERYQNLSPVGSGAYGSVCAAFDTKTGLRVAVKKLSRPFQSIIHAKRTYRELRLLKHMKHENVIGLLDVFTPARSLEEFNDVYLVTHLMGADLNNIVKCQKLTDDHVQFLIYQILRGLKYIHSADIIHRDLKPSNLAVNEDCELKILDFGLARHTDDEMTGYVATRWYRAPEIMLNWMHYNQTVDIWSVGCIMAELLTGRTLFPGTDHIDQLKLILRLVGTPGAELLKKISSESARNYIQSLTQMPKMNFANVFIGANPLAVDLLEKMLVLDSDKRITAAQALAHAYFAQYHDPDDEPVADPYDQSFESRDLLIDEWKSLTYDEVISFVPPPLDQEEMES
Sequence of Calcium/calmodulin-dependent protein kinase type 1B (Homo sapiens) (Q6P2M8 whole entry): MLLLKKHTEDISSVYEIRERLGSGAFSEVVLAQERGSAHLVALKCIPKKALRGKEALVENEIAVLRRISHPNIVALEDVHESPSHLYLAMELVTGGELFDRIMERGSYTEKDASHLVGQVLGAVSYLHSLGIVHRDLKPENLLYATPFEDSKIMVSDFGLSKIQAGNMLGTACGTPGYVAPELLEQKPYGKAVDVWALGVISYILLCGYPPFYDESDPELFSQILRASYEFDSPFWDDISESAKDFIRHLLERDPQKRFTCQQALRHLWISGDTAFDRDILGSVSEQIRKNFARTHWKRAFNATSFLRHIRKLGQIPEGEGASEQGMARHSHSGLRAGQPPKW

SMILES | Activity [1] | Activity [2] | Activity [3] | Activity [4] | Activity [5] | Activity [6] | Activity [7] | inhibition (Homo sapiens) | Activity [8] | Activity [9]
COc1cc2nc(C)nc(N[C@H](C)c3cccc(-c4cn[nH]c4)c3)c2cc1OC | 85% | – | – | – | – | – | – | – | – | –
COc1cc2ncnc(N[C@H](C)c3cccc4ccccc34)c2cc1OC | – | 100% | 96% | 82% | 99% | 88% | 90% | 39% | 89% | 96%
